Experimental data taken from patent publication US20260000710A1, “Novel Treatments for Cardiovascular Related Disease” (priority 2022, published 2026).

Tested on: AIM+ and AIM− CD4+ T cells from peptide-expanded PBMCs
Test: TCRβ CDR3 sequencing (immunoSEQ) of sorted AIM+ and AIM− CD4+ T cells;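 note: genomic DNA from sorted cells as template, amplification bias-controlled two-step multiplex PCR, APOB6 pool at 10 µg/ml per peptide, CD40 blocking antibody added before restimulation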
Assay type: cell-based, human
Details: for Log10 Odds Ratio: AIM+ vs AIM−; for No. of clone-specific productive templates, AIM+ CD4+ T (Total 25796) / No. of clone-specific productive templates, AIM− CD4+ T (Total 25928) / No. of clone-specific productive templates, AIM+ CD4+ T (Total 16700) / No. of clone-specific productive templates, AIM− CD4+ T (Total 21770) / No. of clone-specific productive templates, AIM+ CD4+ T (Total 31354) / No. of clone-specific productive templates, AIM− CD4+ T (Total 48987) / No. of clone-specific productive templates, AIM+ CD4+ T (Total 34927) / No. of clone-specific productive templates, AIM− CD4+ T (Total 45364) / No. of clone-specific productive templates, AIM+ CD4+ T (Total 18591) / No. of clone-specific productive templates, AIM− CD4+ T (Total 7206) / No. of clone-specific productive templates, AIM+ CD4+ T (Total 21697) / No. of clone-specific productive templates, AIM− CD4+ T (Total 49956): PBMCs expanded 14 days and restimulated 24 h with APOB6
Procedure: To examine the clonotypic identities of autoreactive CD4^+ T cells, the hypervariable TCRβ DR3 region was sequenced using a DNA-based sequencing technique^42 (Adaptive Biotechnologies), which have been used to profile clonal populations of other self-antigen specific T cells^43. PBMCs from six HLA-typed donors (demographics and HLA-II alleles in Tables 5, 6) were expanded (14-days) and restimulated (24 h) with the APOB6 pool. To isolate viable responder and non-responder CD4^+ T cells from the same pool of stimulated PBMCs (schematic in FIG. 15A, gating strategy in FIG. 151B), the inventors used the AIM assay protocol (FIGS. 2A to 2D).
As a second control, unexpanded PBMCs (day 0 samples), sorted into naïve, central memory (TCM) and effector memory (TEM) CD4^+ T cells, were used (gating strategy in FIG. 15C). This allowed tracing the APOB6-specific AIM^+ T cell clones in naïve and memory T cell lineages. Genomic DNA, isolated from sorted AIM^− and AIM^+ Day 14 samples and naïve, TCM and TEM Day 0 samples from six donors, was used as the starting material for TCRVβ sequencing (schematic in FIG. 15A) using an optimized two-step, amplification bias-controlled multiplex-PCR-based approach^42,44 (immunoSEQ Human TCRB Assay, Adaptive Biotechnologies).
For isolation of APOB epitope-specific CD4^+ T cells, PBMCs were expanded with the APOB6pool (10 μg/ml per peptide). On Day 14, cultured cells were washed and re-stimulated with APOB6 (10 μg/ml) for 24 h (AIM assay protocol). 1 μg/ml of CD40 blocking antibody was added 15 min before stimulation. At the end of the stimulation period, cells were washed with FACS buffer (PBS w/o Ca/Mg, 2% FCS). Day 14 (APOB6 expanded and restimulated) and Day 0 (ex vivo samples with no in vitro stimulation) PBMC samples from six donors were resuspended in a staining master mix containing anti-human Fc-Block (Biolegend), fixable viability dye and antibodies against T cell and non-T cell (Dump) surface markers, activation markers and memory markers (antibody details in Table 4). Viability dye was used at 1:1000 dilution, antibodies were used at a final dilution of 1:100 (activation markers) and 1:200 (other extracellular markers). […] Gates were set based on unstimulated and PHA-L stimulated negative and positive controls, respectively. Antigen-specific AIM^+ and non-specific control AIM^− CD4^+ T cells from Day 14 samples and naïve (CD45RA^+CCR7^+), central memory (CD45RA^−CCR7^+, TCM) and effector memory (CD45RA^−CCR7^−, TEM) CD4^+ T cells from Day 0 PBMCs were sorted into HEPES-containing buffer (PBS with 2% FBS and 0.025 M HEPES) using BD FACSAria flow cytometry sorters. Acquired data was analyzed with FlowJo software.
Genomic DNA was extracted from sorted cells using QIAamp DNA Micro Kit (QIAGEN) and sent to Adaptive Biotechnologies for survey-level TCRβ sequencing (depth ˜60,000 reads) using their established immunoSEQ platform^7. Briefly, highly variable CDR3 regions on somatically rearranged human TCRβ chains were amplified with a two-step multiplex PCR approach using optimized set of primers that target the VDJ region spanning each unique CDR3B. A synthetic repertoire containing all possible V/J templates is used as a built-in control to quantify and correct PCR amplification biases. Processing of raw Illumina sequence reads, filtering, demultiplexing, clustering and mapping of CDR3 sequences and annotation of VDJ genes using IMGT database sequences were performed at Adaptive Biotechnologies and made available for download and analysis.

CASSPRGAVNTEAFF: TCRβ CDR3 clone, TCRBV07-09+TCRBJ01-01, Donor 4
Log10 Odds Ratio (Donor 4): 0.88
No. of clone-specific productive templates, AIM+ CD4+ T (Total 25796) (Donor 4): 950
No. of clone-specific productive templates, AIM− CD4+ T (Total 25928) (Donor 4): 130

CASSQEVGGDHGYTF: TCRβ CDR3 clone, TCRBV04-03+TCRBJ01-02, Donor 3
Log10 Odds Ratio (Donor 3): 2.41
No. of clone-specific productive templates, AIM+ CD4+ T (Total 16700) (Donor 3): 759
No. of clone-specific productive templates, AIM− CD4+ T (Total 21770) (Donor 3): 4

CASSQTALYSGNTIYF: TCRβ CDR3 clone, TCRBV19-01+TCRBJ01-03, Donor 5
Log10 Odds Ratio (Donor 5): 12.08
No. of clone-specific productive templates, AIM+ CD4+ T (Total 31354) (Donor 5): 777
No. of clone-specific productive templates, AIM− CD4+ T (Total 48987) (Donor 5): 0

CASSQTGQGYNEQFF: TCRβ CDR3 clone, TCRBV23-01+TCRBJ02-01, Donor 6
Log10 Odds Ratio (Donor 6): 1.49
No. of clone-specific productive templates, AIM+ CD4+ T (Total 34927) (Donor 6): 308
No. of clone-specific productive templates, AIM− CD4+ T (Total 45364) (Donor 6): 13

CASSSLTPEAYGYTF: TCRβ CDR3 clone, TCRBV28-01+TCRBJ01-02, Donor 2
Log10 Odds Ratio (Donor 2): 2.21
No. of clone-specific productive templates, AIM+ CD4+ T (Total 18591) (Donor 2): 796
No. of clone-specific productive templates, AIM− CD4+ T (Total 7206) (Donor 2): 2

CASSSSGSNYNEQFF: TCRβ CDR3 clone, TCRBV03-01/03-02+TCRBJ02-01, Donor 3
Log10 Odds Ratio (Donor 3): 1.19
No. of clone-specific productive templates, AIM+ CD4+ T (Total 16700) (Donor 3): 597
No. of clone-specific productive templates, AIM− CD4+ T (Total 21770) (Donor 3): 52

CASSTTGLAAYNEQFF: TCRβ CDR3 clone, TCRBV19-01+TCRBJ02-01, Donor 1
Log10 Odds Ratio (Donor 1): 1.97
No. of clone-specific productive templates, AIM+ CD4+ T (Total 21697) (Donor 1): 519
No. of clone-specific productive templates, AIM− CD4+ T (Total 49956) (Donor 1): 13

CASSWDRTKFGNQPQHF: TCRβ CDR3 clone, TCRBV19-01+TCRBJ01-05, Donor 2
Log10 Odds Ratio (Donor 2): 2.02
No. of clone-specific productive templates, AIM+ CD4+ T (Total 18591) (Donor 2): 268
No. of clone-specific productive templates, AIM− CD4+ T (Total 7206) (Donor 2): 1

CASSYGGGPPDTQYF: TCRβ CDR3 clone, TCRBV06-06+TCRBJ02-03, Donor 5
Log10 Odds Ratio (Donor 5): 2.34
No. of clone-specific productive templates, AIM+ CD4+ T (Total 31354) (Donor 5): 810
No. of clone-specific productive templates, AIM− CD4+ T (Total 48987) (Donor 5): 6

CASSYRQTNQPQHF: TCRβ CDR3 clone, TCRBV06-02/06-03+TCRBJ01-05, Donor 4
Log10 Odds Ratio (Donor 4): 12.14
No. of clone-specific productive templates, AIM+ CD4+ T (Total 25796) (Donor 4): 509
No. of clone-specific productive templates, AIM− CD4+ T (Total 25928) (Donor 4): 0

CASSYSSGGGNEQFF: TCRβ CDR3 clone, TCRBV06-05+TCRBJ02-01, Donor 1
Log10 Odds Ratio (Donor 1): 2.61
No. of clone-specific productive templates, AIM+ CD4+ T (Total 21697) (Donor 1): 348
No. of clone-specific productive templates, AIM− CD4+ T (Total 49956) (Donor 1): 2

CASTATESSPLHF: TCRβ CDR3 clone, TCRBV12-03/12-04+TCRBJ01-06, Donor 5
Log10 Odds Ratio (Donor 5): 11.80
No. of clone-specific productive templates, AIM+ CD4+ T (Total 31354) (Donor 5): 415
No. of clone-specific productive templates, AIM− CD4+ T (Total 48987) (Donor 5): 0

CATALAGGHEQYF: TCRβ CDR3 clone, TCRBV06-05+TCRBJ02-07, Donor 5
Log10 Odds Ratio (Donor 5): 2.60
No. of clone-specific productive templates, AIM+ CD4+ T (Total 31354) (Donor 5): 753
No. of clone-specific productive templates, AIM− CD4+ T (Total 48987) (Donor 5): 3

CATSDFGKEGDEKLFF: TCRβ CDR3 clone, TCRBV24-01+TCRBJ01-04, Donor 5
Log10 Odds Ratio (Donor 5): 2.61
No. of clone-specific productive templates, AIM+ CD4+ T (Total 31354) (Donor 5): 518
No. of clone-specific productive templates, AIM− CD4+ T (Total 48987) (Donor 5): 2

CATSEGGRGRGPGELFF: TCRβ CDR3 clone, TCRBV24-01+TCRBJ02-02, Donor 6
Log10 Odds Ratio (Donor 6): 2.58
No. of clone-specific productive templates, AIM+ CD4+ T (Total 34927) (Donor 6): 292
No. of clone-specific productive templates, AIM− CD4+ T (Total 45364) (Donor 6): 1

CATSEPGPLNQPQHF: TCRβ CDR3 clone, TCRBV24-01+TCRBJ01-05, Donor 3
Log10 Odds Ratio (Donor 3): 1.62
No. of clone-specific productive templates, AIM+ CD4+ T (Total 16700) (Donor 3): 348
No. of clone-specific productive templates, AIM− CD4+ T (Total 21770) (Donor 3): 11

CATSQGVGSGANVLTF: TCRβ CDR3 clone, TCRBV15-01+TCRBJ02-06, Donor 6
Log10 Odds Ratio (Donor 6): 2.24
No. of clone-specific productive templates, AIM+ CD4+ T (Total 34927) (Donor 6): 649
No. of clone-specific productive templates, AIM− CD4+ T (Total 45364) (Donor 6): 5

CAWSVGGPGANSPLHF: TCRβ CDR3 clone, TCRBV30-01+TCRBJ01-06, Donor 2
Log10 Odds Ratio (Donor 2): 1.16
No. of clone-specific productive templates, AIM+ CD4+ T (Total 18591) (Donor 2): 369
No. of clone-specific productive templates, AIM− CD4+ T (Total 7206) (Donor 2): 10

CSAMSPSGTGELFF: TCRβ CDR3 clone, TCRBV20-X+TCRBJ02-02, Donor 2
Log10 Odds Ratio (Donor 2): 12.19
No. of clone-specific productive templates, AIM+ CD4+ T (Total 18591) (Donor 2): 549
No. of clone-specific productive templates, AIM− CD4+ T (Total 7206) (Donor 2): 0

CSARADGQGYGYTF: TCRβ CDR3 clone, TCRBV20-X+TCRBJ01-02, Donor 3
Log10 Odds Ratio (Donor 3): 1.73
No. of clone-specific productive templates, AIM+ CD4+ T (Total 16700) (Donor 3): 996
No. of clone-specific productive templates, AIM− CD4+ T (Total 21770) (Donor 3): 26

CSAREGALDNSPLHF: TCRβ CDR3 clone, TCRBV20-X+TCRBJ01-06, Donor 5
Log10 Odds Ratio (Donor 5): 2.33
No. of clone-specific productive templates, AIM+ CD4+ T (Total 31354) (Donor 5): 537
No. of clone-specific productive templates, AIM− CD4+ T (Total 48987) (Donor 5): 4

CSAREPHDTSTDTQYF: TCRβ CDR3 clone, TCRBV20-X+TCRBJ02-03, Donor 2
Log10 Odds Ratio (Donor 2): 11.98
No. of clone-specific productive templates, AIM+ CD4+ T (Total 18591) (Donor 2): 338
No. of clone-specific productive templates, AIM− CD4+ T (Total 7206) (Donor 2): 0

CSARVTGGGAHTGELFF: TCRβ CDR3 clone, TCRBV20-X+TCRBJ02-02, Donor 1
Log10 Odds Ratio (Donor 1): 2.69
No. of clone-specific productive templates, AIM+ CD4+ T (Total 21697) (Donor 1): 422
No. of clone-specific productive templates, AIM− CD4+ T (Total 49956) (Donor 1): 2

CSARWYNEQFF: TCRβ CDR3 clone, TCRBV20-01+TCRBJ02-01, Donor 3
Log10 Odds Ratio (Donor 3): 1.82
No. of clone-specific productive templates, AIM+ CD4+ T (Total 16700) (Donor 3): 349
No. of clone-specific productive templates, AIM− CD4+ T (Total 21770) (Donor 3): 7

CSASRTYDNQPQHF: TCRβ CDR3 clone, TCRBV20-01+TCRBJ01-05, Donor 2
Log10 Odds Ratio (Donor 2): 11.96
No. of clone-specific productive templates, AIM+ CD4+ T (Total 18591) (Donor 2): 326
No. of clone-specific productive templates, AIM− CD4+ T (Total 7206) (Donor 2): 0

CSATGGTNEKLFF: TCRβ CDR3 clone, TCRBV20-X+TCRBJ01-04, Donor 6
Log10 Odds Ratio (Donor 6): 1.59
No. of clone-specific productive templates, AIM+ CD4+ T (Total 34927) (Donor 6): 500
No. of clone-specific productive templates, AIM− CD4+ T (Total 45364) (Donor 6): 17
